Experimental data published in patent publication US10392422B2, “Macrocyclic broad spectrum antibiotics” (priority 2014, dated 2019).

Experiments:
[1] = system: MRSA COL (NRS100); experiment: MIC, broth micro-dilution technique (CLSI); format: cell-based, Staphylococcus aureus; conditions: Table 1 protocol: serial 2-fold dilutions starting from 64 μg/ml; 35° C., 22 hours
Method in brief: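 CLSI broth microdilution in cation-adjusted Mueller Hinton broth with 0.002% v/v Tween-80. Compounds were serially 2-fold diluted over 10 concentrations from 64 μg/ml, or from 4 μg/mL in a modified protocol; inoculum at final OD600 0.0005, incubated 35° C for 22 hours.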

[2] = system: MRSA strain USA300; experiment: Checkerboard synergy assay (2D MIC) with imipenem; format: cell-based, Staphylococcus aureus; conditions: many points of the isobologram (FIG. 1); synergy defined as sum of the FICs ≤0.5; 35° C., 22 hours
Procedure: 2D MIC assay or “checkerboard assays” are the most common method used to quantify synergistic or antagonistic interactions between two antibiotics with respect to potency (Hallander, H. O., et al., Antimicrob. Agents Chemother. 1982 22:743-752). In this assay in each axis of a 96-well plate contains a 2-fold dilution of a given agent, such that each well contains a unique combination of the agents being tested.
To create a checkerboard dilution scheme, imipenem was diluted in Mueller Hinton II Broth+0.002% Tween-80 to twice the final desired concentration, and six 2-fold serial dilutions were performed in the same media yielding seven imipenem concentrations. Dilutions of Compound 155 were prepared similarly except that ten dilutions were performed for a total of eleven concentrations. […]
MRSA strain USA300 was grown overnight at 35° C. on Mueller Hinton Agar plates, and colonies were suspended in Mueller Hinton II Broth+0.002% Tween-80 to a final density of 1*10^7 cfu/ml. […] The plate was incubated at 35° C. for 22 hours after which growth was determined via visual inspection. For each sub-MIC concentration of imipenem, the concentration of Compound 155 required to prevent visible growth was recorded, and the fractional inhibitor concentration (FIC) of each agent was calculated by dividing the concentration of each agent by MIC of the agent alone. […]

CCCCCCCCCCNCCC(=O)N[C@@H](CCCCN)C(=O)N(C)[C@@H]1C(=O)N[C@@H](C)C(=O)N[C@H](C(=O)N[C@@H](C)C(=O)N2CCC[C@H]2C(N)=O)Cc2ccc(O)c(c2)-c2cc1ccc2O.O=CO [Compound 155]
MIC (μg/mL) (COL) [1]: 1.3 µg/mL | sum of the FICs (fractional inhibitor concentration) of Compound 155 and imipenem [2]: < 0.5
